Results from PMC9915011, “Polymyxin B Conjugates with Bio-Inspired Synthetic Polymers of Different Nature” (International Journal of Molecular Sciences, 2023).
In brackets after ≈: the same amount, converted by molar mass.

Columns and labels:
[1] = test system: P. aeruginosa (ATCC 27853); experiment: MIC by microdilution in Müller–Hinton broth; assay type: cell-based, Pseudomonas aeruginosa; details: 18 h, OD 630 nm, n = 9
Source text: P. aeruginosa (ATCC 27853) from Museum of Microbiological Cultures of State Research Institute of Highly Pure Biopreparations FMBA (St. Petersburg, Russia) and Müller–Hinton Broth (HiMedia, Mumbai, India) were used to study the antibacterial effect of PMX B and its conjugates. HEK 293T cells were purchased from the cell culture collection of the Institute of Cytology of Russian Academy of Sciences (St. Petersburg, Russia).
The minimum inhibitory concentration (MIC) of polymyxin B in the conjugates was determined by the microdilution method in Müller–Hinton broth. Before the samples were tested against P. Aeruginosa, they were checked for microbiological purity to exclude possible contamination. In all cases, the absence of microbial growth on Luria–Bertani agar was detected. […] The plate was incubated for 18 h at 37 °C and then the optical density in the wells was measured at 630 nm using a microplate reader (ELx808™ Absorbance Microplate Reader, BioTek-Agilent, Santa Clara, CA, USA). Relative bacterial growth (%) was calculated from the data of OD measured for samples and control according to the equation: (2) Relative bactearial growth=OD630 sample at Cx−OD630 blank/OD630 positive control−OD630 blank×100% where Cx is a certain concentration of the sample. […]

S. aureus = details: cited from earlier work
Source text: A series of conjugates of loracarbef (cephalosporins) and ciprofloxacin (fluroquinolones) with sideromycins (siderophores) was synthesized and tested against a panel of ESKAPEE bacteria (Enterococcus faecium, S. aureus, Klebsiella pneumoniae, A. baumannii, P. aeruginosa, Enterobacter aerogenes, E. coli).

[2] = test system: Acinetobacter baumannii (Ab ATCC 19606); details: cited from earlier work
P. aeruginosa = details: free colistin; cited from earlier work
Experimental: According to the published works, many factors affect the MIC for conjugates linked with amide bonds. For example, Dubashynskaya et al. observed the dependence of MIC on the degree of substitution (DS). In particular, when the DS was 8%, the MIC against P. aeruginosa for hyaluronan–colistin conjugates was 1 µg/mL, the same as for free colistin. At the same time, a decrease in DS to 5 and 3% was accompanied with the MIC increase to 4 and more than 8 µg/mL, respectively.

HEK 293T cells = experiment: MTT cytotoxicity in HEK 293T cells, 48 h; assay type: cell-based, human; details: free polymers and free PMX B, tested 4 to 1000 µg/mL, mean ± SD, n = 4
Experimental: The cell viability was determined after 48 h using the MTT assay (Figure 6).
HEK 293T cells were cultivated in DMEM/F12 medium with 10% FCS, 2 mM glutamine, and 1% gentamicin (Sigma-Aldrich, Darmstadt, Germany). In 96-well plates, 3.5 × 10^3 cells in 100 µL were seeded per well and left for adhesion at 37 °C for 24 in a humidified 5% CO2 atmosphere. After that, the medium in the wells was replaced with 200 µL of solution containing the test samples at the specified concentrations (n = 4) and left for incubation under the same conditions for 48 h. Then, the medium was removed and 100 µL of MTT reagent solution (5 mg/mL stock solution) was added to each well. The plates were incubated in the CO2 incubator for 3 h at 37 °C. Finally, the solution in the well was replaced with 50 µL of DMSO to dissolve formazan crystals and the optical density in each well was measured at 570 nm using fluorescent plate reader (Fluoroscan Ascent, Thermo Fisher Scientific Inc., Waltham, MA, USA). The wavelength of 690 nm was used to measure the background absorbance. The data obtained were normalized as a percentage of the control. Free polymers and PMX B were tested at concentrations ranging from 4 to 1000 µg/mL.

CC(=O)N(O)CCCCCNC(=O)CCC(=O)N(O)CCCCCNC(=O)CCC(=O)N(O)CCCCCN [DFOA, deferoxamine]
antimicrobial activity ([1]; P. aeruginosa, concentration range of 0.25–64 μg/mL): neither polymers nor DFOA exhibited antimicrobial activity

N[C@@H](C(=O)N[C@@H]1C(=O)N2C(C(=O)O)=C(Cl)CC[C@H]12)c1ccccc1 [loracarbef]
MIC (S. aureus): 1 µM (≈ 0.35 µg/mL)

colistin
MIC [2]: 1 µg/mL
MIC (P. aeruginosa): 1 µg/mL

polymyxin B [PMX B]
IC50 (HEK 293T cells): 130 ± 14 µg/mL
MIC ([1]; P. aeruginosa ATCC 27853, microdilution, Müller–Hinton broth, 1 × 10^7 CFU/mL, 37 °C, MIC of polymyxin B in the conjugates): 4 µg/mL
